Results taken from PubChem BioAssay AID1188 (EPA DSSTox, 2008).
Activity calls are given as the source filed them.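 Rule for the calls: active = a concentration killing half the fathead minnows in the acute test was determined; inconclusive = some fish died but not half at top dose; inactive = no fish died even at top dose.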

System: Fathead minnow (Pimephales promelas) acute toxicity, lethality
Assay: DSSTox (EPAFHM) EPA Fathead Minnow Acute Toxicity
From the text: The EPA Fathead Minnow Acute Toxicity database was generated by the U.S. EPA Mid-Continental Ecology Division (MED) for the purpose of developing an expert system to predict acute toxicity from chemical structure based on mode of action considerations. […] A second valuable aspect of this database, from a QSAR modeling perspective, is the inclusion of general mode-of-action (MOA) classifications of acute toxicity response for individual chemicals derived from study results. MOA assignments are biologically based classifications, allowing definition of chemical similarity based upon biological activity instead of organic chemistry functional class as most commonly employed in QSAR study. MOA classifications should strengthen the scientific basis for construction of individual QSARs. However, it is cautioned that the broad MOA categorizations should not be construed to represent a single molecular mechanism; for example, CNS seizure agents and respiratory inhibitors are known to act through a variety of receptors. The EPA Fathead Minnow database and results have been used by EPA MED to build components of the ASTER prediction system, which incorporates MOA-based QSARs for the prediction of aquatic toxicity of environmental and industrial chemicals. Briefly, MOA classifications for individual chemicals, derived from experiments and provided in the EPA Fathead Minnow database, were used to derive substructural rules for assigning a new chemical to an MOA category based solely on chemical structure. Once a new chemical is assigned to an MOA category on this basis, the logP-based QSAR for that MOA category is applied.
The DSSTox EPAFHM database (available from the DSSTox Source URL) includes information pertaining to organic chemical class assignments (ChemClass_FHM), acute toxicity in fathead minnow (LC50_mg), dose-response assessments (LC50_Ratio, ExcessToxicityIndex), behavioral assessments (FishBehaviorTest), joint toxicity MOA evaluations of mixtures (MOA_MixtureTest), and additional MOA evaluation of fish acute toxicity syndrome (FishAcuteToxSyndrome) in rainbow trout. All of these indicators, to the extent available, were considered in the determination of MOA and, additionally, were used to determine a level of confidence in the MOA assignment for each chemical (MOA_Confidence). […] Activity Score is mapping of LOG10 (1/LC50_mmol) activity values spanning activity range [MIN, MAX] onto Integer 1-100 Activity range, where 100 is highest potency and 1 is lowest. If Activity Outcome is "active": Activity Score = 100 * INTEGER[(log10(1/ LC50_mmol) - MIN)/([…])].

Row | Structure (SMILES) | Potency [µM] | outcome
1 | C=CC(=O)OCC(C)O (stereo unspecified) | 26 | 
2 | CC(C)OC(C)C | 7690 | 
3 | CCCCCCCCBr | 4.34 | 
4 | CCNCc1ccccc1 | 422 | 
5 | Oc1ccccc1 | 347 | 
6 | O=C(c1ccccc1)c1ccncc1 | 562 | 
7 | CCNCCO | 16600 | 
8 | CCCCCCCCOC(=O)c1ccc(C(=O)OCCCCCCCC)cc1 |  | inactive; moa not determined either due to lack of toxicity at saturation or late test res
9 | CC12CCC(CC1)C(C)(C)O2 | 661 | 
10 | CCCCO | 23300 | 
11 | C=CCOC(=O)C(=C)C | 7.85 | 
12 | COC(=O)c1cc(Cl)ccc1Cl | 68.3 | 
13 | N#Cc1cc(Cl)c(O)c(Cl)c1 | 129 | 
14 | CC(C)=CC=C(C)C | 34.3 | 
15 | OCC(F)(F)F | 1190 | 
16 | O=[N+]([O-])c1ccccc1O | 1150 | 
17 | Nc1ccccc1C(=O)c1ccc(Cl)cc1 | 9.15 | 
18 | O=C(c1ccccc1)c1ccccc1 | 80.7 | 
19 | c1ccc(SSc2ccccc2)cc1 | 0.504 | 
20 | CCOP(=S)(OCC)Oc1nc(Cl)c(Cl)cc1Cl | 0.907 | 
21 | c1ccc(N(c2ccccc2)c2ccccc2)cc1 |  | inactive; moa not determined either due to lack of toxicity at saturation or late test res
22 | CC(C)(C)CC(C)(C)N | 190 | 
23 | CCCCCCCCC(=O)O | 657 | 
24 | CCCN(CCC)CCC | 355 | 
25 | C=CCc1ccccc1O | 112 | 

Row | Structure (SMILES) | Potency [µM] | outcome
26 | Oc1ccccc1Cl | 88.7 | 
27 | CCCCCCO | 956 | 
28 | O=Cc1cc(Cl)ccc1O | 4.92 | 
29 | ClC(Cl)(Cl)C(Cl)(Cl)Cl | 6 | 
30 | O=C1CCCCC1 | 6330 | 
31 | O=C(O)c1ccccc1O | 12500 | 
32 | CCCCCC(=O)O | 2760 | 
33 | O=[N+]([O-])c1cc([N+](=O)[O-])c(Cl)cc1Cl | 0.192 | 
34 | CNC(=O)Oc1ccccc1OC(C)C | 42.1 | 
35 | O=Cc1cc(Br)ccc1O | 6.46 | 
36 | Fc1ccc(Oc2ccc(F)cc2)cc1 | 5.48 | 
37 | Oc1cc(Cl)c(Cl)c(Cl)c1Cl | 1.77 | 
38 | Nc1ccc(Cl)cc1 | 246 | 
39 | O=c1cc(-c2ccccc2)oc2ccccc12 | 15.7 | 
40 | CC(=O)c1ccc(Cl)cc1Cl | 68.9 | 
41 | C=CC(=O)OCCCCCCCCCCCC |  | inactive; moa not determined either due to lack of toxicity at saturation or late test res
42 | CC(C)C(C)N (stereo unspecified) | 3260 | 
43 | c1ccc2c(c1)oc1ccccc12 | 8.92 | 
44 | Brc1ccccc1Br | 17.2 | 
45 | CC1=CC(=O)c2ccccc2C1=O | 0.639 | 
46 | O=[N+]([O-])c1ncccc1O | 1190 | 
47 | CN(C)CCCCl | 841 | 
48 | O=P(Oc1ccccc1)(Oc1ccccc1)Oc1ccccc1 | 2.66 | 
49 | O=c1ccc(Cl)c[nH]1 | 8800 | 
50 | CCOC(=O)CC(SP(=S)(OC)OC)C(=O)OCC (stereo unspecified) | 42.7 | 

Row | Structure (SMILES) | Potency [µM] | outcome
51 | Nc1c(F)c(F)c(F)c(F)c1F | 203 | 
52 | OCCCl | 667 | 
53 | CC(C)c1ccccc1 | 52.6 | 
54 | CCc1ccc(C)nc1 | 669 | 
55 | CN(C)c1ccc(/C=C/C=O)cc1 | 36.7 | 
56 | O=c1cccc(Cl)[nH]1 | 1650 | 
57 | Cc1ccc(N)cc1 | 1490 | 
58 | CCCC(C)=O | 14400 | 
59 | c1ccc(Oc2ccccc2)cc1 | 23.5 | 
60 | CCCCCCCCC#N | 37.7 | 
61 | C=Cc1cccc(CCl)c1 | 2.03 | 
62 | C1CCOC1 | 30000 | 
63 | CCN1C(=O)CC(=O)N(CC)C1=S | 22500 | 
64 | CN(C)N | 131 | 
65 | C=CC=O | 0.303 | 
66 | CCCCN(C=O)CCCC | 568 | 
67 | Cc1cc(Cl)nc(N)n1 | 982 | 
68 | CC(O)CCl (stereo unspecified) | 2590 | 
69 | CCCCCCC(C)=O | 281 | 
70 | COc1ccccc1C(N)=O | 794 | 
71 | c1ccc2c(c1)CCO2 | 680 | 
72 | CNC(=O)O/N=C(\SC)C(=O)N(C)C | 30.9 | 
73 | CCCCCCCCCCC(C)=O | 6.4 | 
74 | CC(=O)Nc1ccccc1O | 179 | 
75 | ClCC(Cl)CCl | 391 | 

Row | Structure (SMILES) | Potency [µM] | outcome
76 | CC(C)(O)C(F)(F)C(F)F | 3640 | 
77 | CC1(C)NC(=O)NC1=O | 129000 | 
78 | CCNc1cccc(C)c1 | 366 | 
79 | Cc1ccccn1 | 9630 | 
80 | Clc1cc(Cl)c(SSc2cc(Cl)c(Cl)cc2Cl)cc1Cl |  | inactive; moa not determined either due to lack of toxicity at saturation or late test res
81 | CCCCCCCCCCCC(C)=O | 1.81 | 
82 | Oc1c(Br)cc(Br)cc1Br | 19.8 | 
83 | ON=C1CCCCC1 | 1840 | 
84 | CCOC(=O)c1cccc(N)c1 | 302 | 
85 | Cc1ccc(C)c(O)c1C | 60.2 | 
86 | CN(C)Cc1ccccc1 | 280 | 
87 | CCOC(CN(C)CC(OCC)OCC)OCC | 2410 | 
88 | CC1(C)[C@@H]2CC[C@@]1(C)C(=O)[C@H]2Br | 296 | 
89 | C#CC(O)CCCC (stereo unspecified) | 15.7 | 
90 | COc1cc(OC)c(OC)cc1C=O | 252 | 
91 | CCCCSCCCC | 24.5 | 
92 | NCc1ccccc1 | 952 | 
93 | C1COCCO1 | 117000 | 
94 | Cl/C=C/CCl | 2.15 | 
95 | Oc1ccc(Cl)cc1Cl | 47.5 | 
96 | COc1cccc(C=O)c1O | 15.8 | 
97 | CCSCCSCC | 401 | 
98 | Cc1cocn1 | 16700 | 
99 | CC(=O)Nc1cccc(O)c1 | 7480 | 
100 | CCCCCCCC(C)=O | 107 | 

Row | Structure (SMILES) | Potency [µM] | outcome
101 | Cc1cc(Oc2ccc([N+](=O)[O-])cc2)ccc1Cl |  | inactive; moa not determined either due to lack of toxicity at saturation or late test res
102 | O=Cc1ccccc1F | 10.9 | 
103 | COC(=O)c1ccc(C(=O)OC)c([N+](=O)[O-])c1 | 27.3 | 
104 | Oc1ccccc1O | 83.7 | 
105 | CC(C)(C)c1cc(C(C)(C)C)c(O)c(C(C)(C)C)c1 | 0.232 | 
106 | C#CC(C)(O)CCC(C)C (stereo unspecified) | 349 | 
107 | COC(=O)c1ccc(C(=O)OC)c(N)c1 | 42.7 | 
108 | CCCCCCCCO | 104 | 
109 | CCCCOc1ccccc1 | 38 | 
110 | N#Cc1cccc(C(F)(F)F)c1 | 279 | 
111 | Cc1c[nH]c2ccccc12 | 67.4 | 
112 | CCCCCCCCCCO | 15.2 | 
113 | CCCCCCCCc1ccc(N)cc1 | 0.584 | 
114 | CC(C)(O)CCc1ccccc1 | 404 | 
115 | C=CC(=O)OC1CCCCC1 | 9.6 | 
116 | NCCc1ccccn1 |  | inactive; moa not determined either due to lack of toxicity at saturation or late test res
117 | CC1(C)CC(=O)CC(=O)C1 | 82000 | 
118 | C=CCO | 5.51 | 
119 | O=[N+]([O-])c1cccc(P(=O)(c2cccc([N+](=O)[O-])c2)c2cccc([N+](=O)[O-])c2)c1 |  | inactive; moa not determined either due to lack of toxicity at saturation or late test res
120 | O=S(c1ccccc1)c1ccccc1 | 432 | 
121 | N#Cc1cc(I)c(O)c(I)c1 | 18.3 | 
122 | CCO | 319000 | 
123 | CCCCCCCCCCCC#N | 2.37 | 
124 | NCCN1CCNCC1 | 17000 | 
125 | Cc1ccc(C)cc1 | 83.5 | 

Row | Structure (SMILES) | Potency [µM] | outcome
126 | Oc1ccc(Oc2ccc(O)cc2)cc1 | 28.6 | 
127 | CO |  | active; baseline narcosis
128 | O=C(Oc1ccccc1)c1ccccc1C(=O)Oc1ccccc1 | 0.251 | 
129 | Cc1ccc([N+](=O)[O-])c(OP(=O)(Oc2cc(C)ccc2[N+](=O)[O-])Oc2cc(C)ccc2[N+](=O)[O-])c1 |  | inactive; moa not determined either due to lack of toxicity at saturation or late test res
130 | Cc1ccc(OP(=O)(Oc2ccc(C)c(C)c2)Oc2ccc(C)c(C)c2)cc1C |  | inactive; moa not determined either due to lack of toxicity at saturation or late test res
131 | O=P(Oc1c(Cl)cccc1Cl)(Oc1c(Cl)cccc1Cl)Oc1c(Cl)cccc1Cl |  | inactive; moa not determined either due to lack of toxicity at saturation or late test res
132 | O=[N+]([O-])c1cccc(Cl)c1 | 119 | 
133 | CCCCN | 3660 | 
134 | CC(N)Cc1ccccc1 (stereo unspecified) | 78.2 | 
135 | O=c1cc[nH]c(=O)[nH]1 |  | inactive; moa not determined either due to lack of toxicity at saturation or late test res
136 | NC(=O)c1ccccc1O | 736 | 
137 | CC(O)CN (stereo unspecified) | 33600 | 
138 | C=CCC(O)C=C (stereo unspecified) | 388 | 
139 | C=CCC1(C(C)CCC)C(=O)N=C(O)NC1=O (stereo unspecified) | 90.7 | 
140 | CC(=O)c1ccccc1 | 1350 | 
141 | N#Cc1cc(Cl)ccc1N | 187 | 
142 | CCCCCCCCOC(=O)c1ccccc1C(=O)OCCCCCCCC |  | inactive; moa not determined either due to lack of toxicity at saturation or late test res
143 | CCCCC=O | 150 | 
144 | CCC(C)=O | 44700 | 
145 | C#CC(C)(C)O | 39100 | 
146 | OC(C(F)(F)F)C(F)(F)F | 1450 | 
